“Also recorded” adds a separate entry of the source.
What was measured:
FMR1 knock-out (KO) mice = assay: Audiogenic tonic-clonic seizures (TCS) in FMR1 transgenic mice; type: in vivo, mouse
Protocol: Audiogenic Tonic-Clonic Seizures (TCS) in FMR1 Transgenic Mice
FMR1 knock-out (KO) mice were bred and weaned at postnatal day 21 (P21), and all mice were tested between P21 to P23. NLX-101 was administered at doses of 0.6, 1.2, 1.8 and 2.4 mg/kg i.p. Control FMR1 KO mice received saline. NLX-101 or saline was injected 10 min before subjecting the mice to the auditory stimulus.
To differentiate each mouse for post-hoc video analysis, mice were color coded prior to drug or saline administration. Mice (up to 4/cage) were then put in a cage with a lid; after 10 min, a speaker was placed on top of the lid, and the cage placed in a sound attenuation booth (Gretch-Ken Inc., OR); the auditory stimulus was a continuously alternating up and down frequency modulated sweep with frequencies between 2-8 kHz, presented at an intensity between 105-110 dB for 15 min. The procedure lasted a total of 20 min starting with 5 min of habituation (without a sound stimulus). The full 20-min procedure was video recorded for off-line analysis.
The typical behavior of FMR1 knock-out mice subjected to loud audio stimulus includes tonic-clonic seizures (TCS: the mouse lays on the cage bottom with hindlimb extension), and death by respiratory arrest (manifested by a deep respiratory gasp and relaxation of pinna).
The latency time (from the stimulus onset) to the occurrence of TCS and death were recorded with a stopwatch (precision: 1 sec). Survival analysis was used to analyze the probability of TCS or death by log-rank test.

wild-type male mice = assay: Maximal electroshock seizure (MES) test; type: in vivo, mouse; settings: 0.02 to 2 mg/kg i.p., 30 and 120 min post-injection
Protocol: Seizures Induced in the Maximal Electroshock Seizure (MES) Test
Experiments were carried out in accordance with the National Institute of Neurological Disorders and Stroke (NINDS) Epilepsy Therapy Screening Program (https://panache.ninds.nih.gov/TestDescription/TestMES). The MES test was carried out using wild-type male mice. MES is a model for generalized tonic-clonic seizures and provides an indication of a compound's ability to prevent seizure spread when all neuronal circuits in the brain are maximally active (White H S, Johnson M, Wolf H H, Kupferberg H J. The early identification of anticonvulsant activity: role of the maximal electroshock and subcutaneous pentylenetetrazol seizure models. Ital J Neurol sci. 1995; 16:73-7). These seizures are highly reproducible and are electrophysiologically consistent with human seizures. Seizures were induced by a high frequency (60 Hz) of alternating current at 50 mA over a short duration (0.2 sec) delivered through corneal electrodes. Prior to stimulation, corneas were irrigated with 0.5% tetracaine hydrochloride for local anesthesia and 0.9% saline to improve electrical conductivity. Seizures induced by MES are characterized by tonic extension of forelimbs and hindlimbs that is followed by brief episodes of clonic activity of the forelimbs and hindlimbs. […]

wild-type male CF-1 mice = assay: Seizures induced by corneal electrical stimulation (CES, 6 Hz, 44 mA); type: in vivo, mouse
Protocol: Seizures Induced by Corneal Electrical Stimulation (CES) in Wild-Type Mice
Experiments were carried out in accordance with the National Institute of Neurological Disorders and Stroke (NINDS) Epilepsy Therapy Screening Program (https://panache.ninds.nih.gov/TestDescription/Test6HZ). The CES test was carried out using wild-type male CF-1 mice. Seizures were induced by a low frequency (6 Hz, 0.2 msec rectangular pulse), long-duration (3 sec), 44 mA current (double the current producing seizures in 97% of animals) delivered through corneal electrodes (Barton M E, Klein B D, Wolf H H, White H S. Pharmacological characterization of the 6 Hz psychomotor seizure model of partial epilepsy. Epilepsy Res. 2001; 47:217-27). A drop of 0.5% tetracaine hydrochloride in 0.9% saline (anesthetic/electrolyte) solution was applied to the eyes just prior to the placement of corneal electrodes. The seizure in mice is characterized by an initial momentary stun followed immediately by jaw clonus, forelimb clonus, twitching of the vibrissae, and “Straub tail”. Animals not displaying this behavior within the one-minute observation period are considered “protected” from seizures.
Testing for anti-seizure activity in the CES model was performed with 4 male mice/dose/time point. […] of NLX-101 (0.02, 0.06, 0.5, 1 and 2 mg/kg i.p.) and two timepoints (30 and 120 min after drug administration) were tested.

[1] = system: mouse model of the Rett syndrome; settings: cited from earlier work
humans = settings: cited from earlier work

| SMILES | number of FMR1 knock-out mice that died (FMR1 knock-out (KO) mice; 0.6-2.4 mg/kg i.p., 10 min before auditory stimulus, significant effects at 1.2, 1.8 and 2.4 mg/kg) | percentage of FMR1 knock-out mice displaying tonic-clonic seizures (FMR1 knock-out (KO) mice; 0.6-2.4 mg/kg i.p., 10 min before auditory stimulus, significant effects at 1.8 and 2.4 mg/kg) | mice protected from death (FMR1 knock-out (KO) mice; audiogenic tonic-clonic seizure model in FMR1 knock-out mice) | occurrence of seizures in the MES test (wild-type male mice) | anti-seizure activity in the CES test (wild-type male CF-1 mice; 0.02 to 2 mg/kg i.p., 30 and 120 min) | mice with reduced seizure occurrence in the CES test (wild-type male CF-1 mice; highest dose tested (2 mg/kg i.p.), 30 min post injection) | respiratory abnormalities [1] | seizures in humans (humans) |
| --- | --- | --- | --- | --- | --- | --- | --- | --- |
| Cc1cnc(CNCC2(F)CCN(C(=O)c3ccc(F)c(Cl)c3)CC2)nc1 [NLX-101] | dose-dependently reduced | potently and efficaciously reduced seizures; also recorded: dose-dependently reduced | over 75% | did not exhibit any anti-seizure activity; also recorded: did not affect the occurrence of seizures | did not exhibit any anti-seizure activity | 1 out of 4 | improves the respiratory abnormalities | – |
| N#Cc1ccc2[nH]cc(CCCCN3CCN(c4ccc5oc(C(N)=O)cc5c4)CC3)c2c1 [vilazodone] | – | – | – | – | – | – | – | induces seizures |
